Measured values published in US20150218534A1, “MODIFIED DNA POLYMERASE” (TOYOBO CO., LTD., priority 2012, published 2015).

B1: KOD Y7A: modified DNA polymerase derived from Thermococcus kodakaraensis KOD1 with Y7A (protein, listed as Thermococcus kodakaraensis)
chain: MILDTDAITEDGKPVIRIFKKENGEFKIEYDRTFEPYFYALLKDDSAIEEVKKITAERHGTVVTVKRVEKVQKKFLGRPVEVWKLYFTHPQDVPAIRDKIREHPAVIDIYEYDIPFAKRYLIDKGLVPMEGDEELKMLAFDIETLYHEGEEFAEGPILMISYADEEGARVITWKNVDLPYVDVVSTEREMIKRFLRVVKEKDPDVLITYNGDNFDFAYLKKRCEKLGINFALGRDGSEPKIQRMGDRFAVEVKGRIHFDLYPVIRRTINLPTYTLEAVYEAVFGQPKEKVYAEEITTAWETGENLERVARYSMEDAKVTYELGKEFLPMEAQLSRLIGQSLWDVSRSSTGNLVEWFLLRKAYERNELAPNKPDEKELARRRQSYEGGYVKEPERGLWENIVYLDFRSLYPSIIITHNVSPDTLNREGCKEYDVAPQVGHRFCKDFPGFIPSLLGDLLEERQKIKKKMKATIDPIERKLLDYRQRAIKILANSYYGYYGYARARWYCKECAESVTAWGREYITMTIKEIEEKYGFKVIYSDTDGFFATIPGADAETVKKKAMEFLKYINAKLPGALELEYEGFYKRGFFVTKKKYAVIDEEGKITTRGLEIVRRDWSEIAKETQARVLEALLKDGDVEKAVRIVKEVTEKLSKYEVPPEKLVIHEQITRDLKDYKATGPHVAVAKRLAARGVKIRPGTVISYIVLKGSGRIGDRAIPFDEFDPTKHKYDAEYYIENQVLPAVERILRAFGYRKEDLRYQKTRQVGLSAWLKPKGT
B2: KOD P36H: modified KOD DNA polymerase with P36H (protein, listed as Thermococcus kodakaraensis)
chain: MILDTDYITEDGKPVIRIFKKENGEFKIEYDRTFEHYFYALLKDDSAIEEVKKITAERHGTVVTVKRVEKVQKKFLGRPVEVWKLYFTHPQDVPAIRDKIREHPAVIDIYEYDIPFAKRYLIDKGLVPMEGDEELKMLAFDIETLYHEGEEFAEGPILMISYADEEGARVITWKNVDLPYVDVVSTEREMIKRFLRVVKEKDPDVLITYNGDNFDFAYLKKRCEKLGINFALGRDGSEPKIQRMGDRFAVEVKGRIHFDLYPVIRRTINLPTYTLEAVYEAVFGQPKEKVYAEEITTAWETGENLERVARYSMEDAKVTYELGKEFLPMEAQLSRLIGQSLWDVSRSSTGNLVEWFLLRKAYERNELAPNKPDEKELARRRQSYEGGYVKEPERGLWENIVYLDFRSLYPSIIITHNVSPDTLNREGCKEYDVAPQVGHRFCKDFPGFIPSLLGDLLEERQKIKKKMKATIDPIERKLLDYRQRAIKILANSYYGYYGYARARWYCKECAESVTAWGREYITMTIKEIEEKYGFKVIYSDTDGFFATIPGADAETVKKKAMEFLKYINAKLPGALELEYEGFYKRGFFVTKKKYAVIDEEGKITTRGLEIVRRDWSEIAKETQARVLEALLKDGDVEKAVRIVKEVTEKLSKYEVPPEKLVIHEQITRDLKDYKATGPHVAVAKRLAARGVKIRPGTVISYIVLKGSGRIGDRAIPFDEFDPTKHKYDAEYYIENQVLPAVERILRAFGYRKEDLRYQKTRQVGLSAWLKPKGT

Test system: human genomic DNA (about 1.3 kb) with dUTP added
Test: Evaluation of uracil (dUTP) sensitivity by PCR with dUTP added to the reaction
Type: biochemical
Conditions: for Evaluation of dUTP resisitance on a 11-point scale: closer to 0 = stronger sensitivity to dUTP, closer to 10 = lower sensitivity, summary of Examples 1 to 3; for dUTP resistance: dUTP added to 0.5, 5, 50, 100, 200 μM, about 1.3 kb, 30 cycles, 1 U enzyme; for PCR products on addition of dUTP: some amount of dUTP added
Method in brief: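 Uracil sensitivity is judged by whether a roughly 1.3 kb band still appears on ethidium bromide-stained agarose gel. Tolerated dUTP was tested at final 0.5 to 200 μM (0.5, 5, 50, 100, 200 μM), using 10 ng human genomic DNA, 1 U enzyme, 0.2 mM dNTPs and 1.5 mM MgSO4 in KOD-Plus-Ver. 2 buffer. Cycling: 94° C for 30 s, then 30 cycles of 98° C/65° C/68° C.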

Row | Molecule | Evaluation of dUTP resisitance on a 11-point scale | dUTP resistance [µM] | PCR products on addition of dUTP
1 | KOD I142R/P36R: KOD I142R (exo(−)) mutant with P36R | 8 | >200 | –
2 | KOD I142R/P36H: KOD I142R (exo(−)) mutant with P36H | 8 | >200 | –
3 | KOD D141A/E143A/Y7A/P36R: KOD D141A/E143A (exo(−)) mutant with Y7A and P36R | 10 | >200 | –
4 | KOD H147E/Y7A/V93K: KOD H147E (exo(+)) mutant with Y7A and V93K | 8 | >200 | –
5 | KOD I142R/Y7A/P36H: KOD I142R (exo(−)) mutant with Y7A and P36H | 8 | >200 | –
6 | KOD H147E/V93K: KOD H147E (exo(+)) mutant with V93K | 6 | >200 | –
7 | KOD I142R/Y7A/P36R: KOD I142R (exo(−)) mutant with Y7A and P36R | 8 | >200 | –
8 | KOD N210D/P36R: KOD N210D (exo(−)) mutant with P36R | 8 | >200 | –
9 | KOD H147E/P36R/V93K: KOD H147E (exo(+)) mutant with P36R and V93K | 0 | 0 | –
10 | KOD D141A/E143A/V93K: KOD D141A/E143A (exo(−)) mutant with V93K | 8 | >200 | –
11 | KOD N210D/Y7A/P115Δ: KOD N210D (exo(−)) mutant with Y7A and lacking P115 | 0 | 0 | –
12 | KOD I142R/Y7A/V93K: KOD I142R (exo(−)) mutant with Y7A and V93K | 10 | >200 | –
13 | KOD D141A/E143A/Y7A/V93K: KOD D141A/E143A (exo(−)) mutant with Y7A and V93K | 10 | >200 | –
14 | KOD N210D/Y7A/P36R: KOD N210D (exo(−)) mutant with Y7A and P36R | 10 | >200 | –
15 | KOD H147E/V93R: KOD H147E (exo(+)) mutant with V93R | 6 | >200 | –
16 | KOD H147E/P36H/V93K: KOD H147E (exo(+)) mutant with P36H and V93K | 8 | >200 | –
17 | KOD Y7A/P115Δ: modified KOD DNA polymerase with Y7A and lacking P115 | 0 | 0 | –
18 | KOD I142R/Y7A: KOD I142R (exo(−)) mutant with Y7A | 2 | 5 | –
19 | KOD N210D/V93Q: KOD N210D (exo(−)) mutant with V93Q | 6 | >200 | –
20 | KOD H147E/P36H: KOD H147E (exo(+)) mutant with P36H | 6 | >200 | –
21 | KOD N210D/P115Δ: KOD N210D (exo(−)) mutant lacking P115 | 0 | 0 | –
22 | KOD H147E/P115Δ: KOD H147E (exo(+)) mutant lacking P115 | 0 | 0 | –

Row | Molecule | Evaluation of dUTP resisitance on a 11-point scale | dUTP resistance [µM] | PCR products on addition of dUTP
23 | KOD D141A/E143A/P36H: KOD D141A/E143A (exo(−)) mutant with P36H | 8 | >200 | –
24 | KOD Y7A/P36R: modified KOD DNA polymerase with Y7A and P36R | 7 | >200 | –
25 | KOD N210D/V93R: KOD N210D (exo(−)) mutant with V93R | 8 | >200 | –
26 | KOD N210D/P36H: KOD N210D (exo(−)) mutant with P36H | 8 | >200 | –
27 | KOD H147E/Y7A/P36R: KOD H147E (exo(+)) mutant with Y7A and P36R | 8 | >200 | –
28 | KOD I142R/V93K: KOD I142R (exo(−)) mutant with V93K | 8 | >200 | –
29 | KOD D141A/E143A/P36R: KOD D141A/E143A (exo(−)) mutant with P36R | 8 | >200 | –
30 | KOD P115Δ: modified KOD DNA polymerase lacking P115 | 0 | 0 | –
31 | KOD H147E/Y7A/P36H: KOD H147E (exo(+)) mutant with Y7A and P36H | 8 | >200 | –
32 | KOD N210D/Y7A/V93K: KOD N210D (exo(−)) mutant with Y7A and V93K | 10 | >200 | –
33 | KOD P36R/V93K: modified KOD DNA polymerase with P36R and V93K | 0 | 0 | –
34 | KOD N210D/Y7A: KOD N210D (exo(−)) mutant with Y7A | 2 | 5 | –
35 | KOD N210D/V93K: KOD N210D (exo(−)) mutant with V93K | 8 | >200 | –
36 | KOD D141A/E143A/Y7A/P36H: KOD D141A/E143A (exo(−)) mutant with Y7A and P36H | 10 | >200 | –
37 | KOD H147E/P36R: KOD H147E (exo(+)) mutant with P36R | 6 | >200 | –
38 | KOD H147E/Y7A: KOD H147E (exo(+)) mutant with Y7A | 2 | 0.5 | –
39 | KOD H147E/Y7A/P115Δ: KOD H147E (exo(+)) mutant with Y7A and lacking P115 | 0 | 0 | –
40 | KOD H147E/V93Q: KOD H147E (exo(+)) mutant with V93Q | 4 | 100 | –
41 | KOD D141A/E143A/Y7A: KOD D141A/E143A (exo(−)) mutant with Y7A | 2 | 5 | –
42 | B1 | 2 | 0.5 | PCR products were confirmed
43 | B2 | 5 | >200 | PCR products were confirmed
